Key:
Assay in all cases: relative viability (nuclei count vs DMSO), 5 days (fraction); higher = more cells survive
[1] = compound: COc1ccc(-c2ccc3c(N4CCOC[C@@H]4C)nc(N4CCOC[C@@H]4C)nc3n2)cc1CO [AZD8055]
How it was run: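 After an overnight hold at 37 °C, lung cancer cell lines in 1536-well plates were pinned with five library-drug doses (not always all listed), each √10 from the next, on vehicle-anchored plates. The cells stayed 5 days without fresh medium, then a one-step fix, permeabilisation and Hoechst stain preceded 4× imaging and MetaXpress nuclear counts. A plate passed only with control CV under 25% and at least one doubling. Viability is the median, over plates, of treated-well nuclei relative to vehicle-well nuclei.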

[2] = compound: COc1ccc(-c2ccc3c(N4CCOC[C@@H]4C)nc(N4CCOC[C@@H]4C)nc3n2)cc1CO [AZD8055] + CC(=O)Nc1cccc(-n2c(=O)n(C3CC3)c(=O)c3c(Nc4ccc(I)cc4F)n(C)c(=O)c(C)c32)c1 [Trametinib] (partner 0.02 µM)
How it was run: (§1)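 Five library-drug doses in √10 steps were combined with a fixed anchor-drug dose, or a single drug was given alone, by pin tool to lung cancer cell lines in 1536-well plates the day after seeding. Nuclei were stained and counted after 5 days. Relative viability is the nuclei count in treated wells over that in vehicle wells, taken as the median of duplicate plates.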

[3] = compound: COc1ccc(-c2ccc3c(N4CCOC[C@@H]4C)nc(N4CCOC[C@@H]4C)nc3n2)cc1CO [AZD8055] + Cc1cc(Nc2cc(N3CCN(C)CC3)nc(Sc3ccc(NC(=O)C4CC4)cc3)n2)n[nH]1 [Tozasertib] (partner 0.1 µM)
How it was run: as §1

[4] = compound: COc1ccc(-c2ccc3c(N4CCOC[C@@H]4C)nc(N4CCOC[C@@H]4C)nc3n2)cc1CO [AZD8055] + NC(=O)Nc1cc(-c2cccc(F)c2)sc1C(=O)N[C@H]1CCCNC1 [AZD7762] (partner 0.2 µM)
How it was run: as §1

Row | Cell Line | relative viability ([1]; 0.01 µM) | relative viability ([1]; 0.03162 µM) | relative viability ([1]; 0.1 µM) | relative viability ([1]; 0.3162 µM) | relative viability ([1]; 1 µM) | relative viability ([2]; first compound 0.01 µM) | relative viability ([2]; first compound 0.03162 µM) | relative viability ([2]; first compound 0.1 µM) | relative viability ([2]; first compound 0.3162 µM) | relative viability ([2]; first compound 1 µM) | relative viability ([3]; first compound 0.01 µM) | relative viability ([3]; first compound 0.03162 µM) | relative viability ([3]; first compound 0.1 µM) | relative viability ([3]; first compound 0.3162 µM) | relative viability ([3]; first compound 1 µM) | relative viability ([4]; first compound 0.01 µM) | relative viability ([4]; first compound 0.03162 µM) | relative viability ([4]; first compound 0.1 µM) | relative viability ([4]; first compound 0.3162 µM) | relative viability ([4]; first compound 1 µM)
1 | HCC-15 | 1.09 | 1.03 | 0.883 | 0.53 | 0.351 | 0.373 | 0.337 | 0.271 | 0.167 | 0.186 | 0.437 | 0.379 | 0.415 | 0.296 | 0.222 | 1.26 | 1.18 | 1.21 | 0.885 | 0.559
2 | NCI-H647 | 0.981 | 0.717 | 0.51 | 0.332 | 0.204 | 0.538 | 0.345 | 0.322 | 0.136 | 0.127 | 0.319 | 0.27 | 0.28 | 0.143 | 0.088 | 0.397 | 0.338 | 0.391 | 0.157 | 0.1
3 | NCI-H1651 | 1.08 | 0.847 | 0.871 | 0.61 | 0.389 | 0.809 | 0.715 | 0.735 | 0.582 | 0.462 | 0.695 | 0.64 | 0.694 | 0.414 | 0.317 | 0.499 | 0.431 | 0.424 | 0.237 | 0.161
4 | NCI-H1734 | 1.08 | 0.732 | 0.646 | 0.385 | 0.276 | 0.747 | 0.559 | 0.531 | 0.312 | 0.242 | 0.234 | 0.26 | 0.23 | 0.194 | 0.196 | 0.549 | 0.361 | 0.273 | 0.181 | 0.15
5 | NCI-H3122 | 1.06 | 1.11 | 0.846 | 0.457 | 0.311 | 0.227 | 0.195 | 0.175 | 0.119 | 0.0905 | 0.465 | 0.375 | 0.315 | 0.178 | 0.132 | 1.13 | 1.01 | 0.594 | 0.351 | 0.187
6 | CAL-12T | 1.06 | 0.995 | 0.7 | 0.322 | 0.274 | 0.33 | 0.308 | 0.227 | 0.186 | 0.196 | 0.329 | 0.37 | 0.277 | 0.174 | 0.166 | 0.695 | 0.8 | 0.733 | 0.421 | 0.339
7 | HCC-78 | 1.03 | 0.837 | 0.615 | 0.395 | 0.457 | 0.819 | 0.596 | 0.597 | 0.409 | 0.349 | 0.475 | 0.404 | 0.341 | 0.299 | 0.232 | 0.658 | 0.541 | 0.47 | 0.347 | 0.269
8 | NCI-H2085 | 1 | 0.987 | 0.723 | 0.43 | 0.42 | 0.535 | 0.326 | 0.282 | 0.246 | 0.295 | 0.775 | 0.759 | 0.703 | 0.388 | 0.338 | 0.994 | 0.848 | 0.706 | 0.409 | 0.362
